# Source: patent US20070015723A1, “Antiviral oligonucleotides having a conserved G4 core sequence” (priority 1992, published 2007)
# Strand notation (5' to 3'): a small letter for the sugar, then the base; units joined by * are phosphorothioate-linked, units joined directly phosphodiester-linked; [ ] holds rarer units or linkages, { } end groups; capitals alone tell only the bases. d = 2'-deoxy (DNA)
# Target: T1, human type II phospholipase A2 (Homo sapiens, UniProt P14555)
# T1 sequence (P14555 21-144): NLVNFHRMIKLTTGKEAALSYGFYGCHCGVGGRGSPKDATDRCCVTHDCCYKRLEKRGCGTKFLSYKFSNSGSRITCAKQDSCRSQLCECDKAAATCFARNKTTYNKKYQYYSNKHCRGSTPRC
# Test: Human type II phospholipase A2 enzyme assay (3H-oleic acid labelled E. coli substrate)
# Type: biochemical
# [1] = 1 μM, Table 5, two separate experiments
Substance,"% Inhibition (1 μM) (1 μM, Table 4)",also measured
"GGG TGG GTA TAG AAG GGC: truncated version of ISIS 3196, SEQ ID NO 97 (dG*dG*dG*dT*dG*dG*dG*dT*dA*dT*dA*dG*dA*dA*dG*dG*dG*dC)",,% Inhibition (1 μM) [1]: 85.3%
"GGG TGG GTA TAG AAG: truncated version of ISIS 3196, SEQ ID NO 98 (dG*dG*dG*dT*dG*dG*dG*dT*dA*dT*dA*dG*dA*dA*dG)",,% Inhibition (1 μM) [1]: 82.5%
"GTA TAG AAG GGC TCC: truncated version of ISIS 3196, SEQ ID NO 100 (dG*dT*dA*dT*dA*dG*dA*dA*dG*dG*dG*dC*dT*dC*dC)",,% Inhibition (1 μM) [1]: 9.2%
"ISIS 1573: phosphorothioate deoxyoligonucleotide, SEQ ID NO: 120 (dG*dA*dG*dG*dC*dT*dG*dA*dG*dG*dT*dG*dG*dG*dA*dG*dG*dA)",,inhibition of phospholipase A2 (concentrations as high as 10 μM): did not significantly inhibit
"ISIS 3181: TCTGCCCCGGCCGTCGCTCCC, phosphorothioate, SEQ ID NO 58 (dT*dC*dT*dG*dC*dC*dC*dC*dG*dG*dC*dC*dG*dT*dC*dG*dC*dT*dC*dC*dC)",42.7%,
"ISIS 3182: CAGAGGACTCCAGAGTTGTAT, phosphorothioate, SEQ ID NO 59 (dC*dA*dG*dA*dG*dG*dA*dC*dT*dC*dC*dA*dG*dA*dG*dT*dT*dG*dT*dA*dT)",30.2%,
"ISIS 3184: TTCATGGTAAGAGTTCTTGGG, phosphorothioate, SEQ ID NO 60 (dT*dT*dC*dA*dT*dG*dG*dT*dA*dA*dG*dA*dG*dT*dT*dC*dT*dT*dG*dG*dG)",25.1%,
"ISIS 3185: CAAAGATCATGATCACTGCCA, phosphorothioate, SEQ ID NO 61 (dC*dA*dA*dA*dG*dA*dT*dC*dA*dT*dG*dA*dT*dC*dA*dC*dT*dG*dC*dC*dA)",22.7%,
"ISIS 3192: GGAAGGTTTCGAGQGAAGAGG, phosphorothioate, SEQ ID NO 63",28.1%,
"ISIS 3193: CCTGCAGTAGGCCTGGAAGGA, phosphorothioate, SEQ ID NO 64 (dC*dC*dT*dG*dC*dA*dG*dT*dA*dG*dG*dC*dC*dT*dG*dG*dA*dA*dG*dG*dA)",22.6%,
"ISIS 3468: GGGACTCAGCAACGAGGGGTG, phosphorothioate, SEQ ID NO 65 (dG*dG*dG*dA*dC*dT*dC*dA*dG*dC*dA*dA*dC*dG*dA*dG*dG*dG*dG*dT*dG)",97.5%,
"ISIS 3470: GTAGGGAGGGAGGGTATGAGA, phosphorothioate, SEQ ID NO 66 (dG*dT*dA*dG*dG*dG*dA*dG*dG*dG*dA*dG*dG*dG*dT*dA*dT*dG*dA*dG*dA)",88.9%,inhibition of human type II phospholipase A2 (1 μM): completely inhibited
"ISIS 3471: AAGGAACTTGGTTAGGGTAGG, phosphorothioate, SEQ ID NO 67 (dA*dA*dG*dG*dA*dA*dC*dT*dT*dG*dG*dT*dT*dA*dG*dG*dG*dT*dA*dG*dG)",34.5%,
"ISIS 3472: TGGGTGAGGGATGCTTTCTGC, phosphorothioate, SEQ ID NO 68 (dT*dG*dG*dG*dT*dG*dA*dG*dG*dG*dA*dT*dG*dC*dT*dT*dT*dC*dT*dG*dC)",69.0%,
"ISIS 3473: CTGCCTGGCCTCTAGGATGGG, phosphorothioate, SEQ ID NO 69 (dC*dT*dG*dC*dC*dT*dG*dG*dC*dC*dT*dC*dT*dA*dG*dG*dA*dT*dG*dG*dG)",25.9%,
"ISIS 3474: ATAGAAGGGCTCCTGCCTGGC, phosphorothioate, SEQ ID NO 70 (dA*dT*dA*dG*dA*dA*dG*dG*dG*dC*dT*dC*dC*dT*dG*dC*dC*dT*dG*dG*dC)",13.3%,
"ISIS 3475: TCTCATTCTGGGTGGGTATAG, phosphorothioate, SEQ ID NO 71 (dT*dC*dT*dC*dA*dT*dT*dC*dT*dG*dG*dG*dT*dG*dG*dG*dT*dA*dT*dA*dG)",67.0%,
"ISIS 3476: GCTGGAAATCTGCTGGATGTC, phosphorothioate, SEQ ID NO 72 (dG*dC*dT*dG*dG*dA*dA*dA*dT*dC*dT*dG*dC*dT*dG*dG*dA*dT*dG*dT*dC)",43.4%,
"ISIS 3477: GTGGAGGAGAGCAGTAGAAGG, phosphorothioate, SEQ ID NO 73 (dG*dT*dG*dG*dA*dG*dG*dA*dG*dA*dG*dC*dA*dG*dT*dA*dG*dA*dA*dG*dG)",54.7%,
"ISIS 3478: TGGTTAAGCACGGAGTTGAGG, phosphorothioate, SEQ ID NO 74 (dT*dG*dG*dT*dT*dA*dA*dG*dC*dA*dC*dG*dG*dA*dG*dT*dT*dG*dA*dG*dG)",26.4%,
"ISIS 3479: CCGGAGTACAGGTTCTTTGGT, phosphorothioate, SEQ ID NO 75",42.3%,
"ISIS 3480: TTGCTTTATTCAGAAGAGACC, phosphorothioate, SEQ ID NO 76 (dT*dT*dG*dC*dT*dT*dT*dA*dT*dT*dC*dA*dG*dA*dA*dG*dA*dG*dA*dC*dC)",24.5%,
"ISIS 3481: TTTTTGATTTGCTAATTGCTT, phosphorothioate, SEQ ID NO 77 (dT*dT*dT*dT*dT*dG*dA*dT*dT*dT*dG*dC*dT*dA*dA*dT*dT*dG*dC*dT*dT)",2.2%,"effect on substrate kinetics (increasing E. coli substrate, ISIS 3481 at 0.2 μM and 2 μM): did not modify the substrate kinetics"

Substance,"% Inhibition (1 μM) (1 μM, Table 4)",also measured
"ISIS 3628: GGAGCCCTfCTATACCCACCC, phosphorothioate, SEQ ID NO 78",13.6%,I.C.50 relative to ISIS 3196 (fold higher): approximately 10 fold
"ISIS 3629: CACCCCTCGTTGCTGAGTCCC, phosphorothioate, SEQ ID NO 79 (dC*dA*dC*dC*dC*dC*dT*dC*dG*dT*dT*dG*dC*dT*dG*dA*dG*dT*dC*dC*dC)",20.5%,
"ISIS 3630: TCTCATACCCTCCCTCCCTAC, phosphorothioate, SEQ ID NO 80 (dT*dC*dT*dC*dA*dT*dA*dC*dC*dC*dT*dC*dC*dC*dT*dC*dC*dC*dT*dA*dC)",17.6%,
"ISIS 3631: AGGTCGAGGAGTGGTCTGAGC, phosphorothioate, SEQ ID NO 81 (dA*dG*dG*dT*dC*dG*dA*dG*dG*dA*dG*dT*dG*dG*dT*dC*dT*dG*dA*dG*dC)",20.7%,I.C.50 relative to ISIS 3196 (fold higher): approximately 10 fold
"ISIS 3632: CCAGGAGAGGTCGGTAAGGCG, phosphorothioate, SEQ ID NO 82 (dC*dC*dA*dG*dG*dA*dG*dA*dG*dG*dT*dC*dG*dG*dT*dA*dA*dG*dG*dC*dG)",29.2%,
"ISIS 3633: GTAGGGATGGGAGTGAAGGAG, phosphorothioate, SEQ ID NO 83 (dG*dT*dA*dG*dG*dG*dA*dT*dG*dG*dG*dA*dG*dT*dG*dA*dA*dG*dG*dA*dG)",58.5%,
"ISIS 3659: TGCTCCTCCTTGGTGGCTCTC, phosphorothioate, SEQ ID NO 84 (dT*dG*dC*dT*dC*dC*dT*dC*dC*dT*dT*dG*dG*dT*dG*dG*dC*dT*dC*dT*dC)",38.2%,
"ISIS 3663: GTCTGCTGGGTGGTCTGAACT, phosphorothioate, SEQ ID NO 85",16.3%,
"ISIS 3665: GGACTGGCCTAGCTCCTCTGC, phosphorothioate, SEQ ID NO 86 (dG*dG*dA*dC*dT*dG*dG*dC*dC*dT*dA*dG*dC*dT*dC*dC*dT*dC*dT*dG*dC)",45.8%,
"ISIS 3669: GGTGACAAATGCAGATGGACT, phosphorothioate, SEQ ID NO 87 (dG*dG*dT*dG*dA*dC*dA*dA*dA*dT*dG*dC*dA*dG*dA*dT*dG*dG*dA*dC*dT)",34.7%,
"ISIS 3671: TAGGAGGGTCTTCATGGTAAG, phosphorothioate, SEQ ID NO 88 (dT*dA*dG*dG*dA*dG*dG*dG*dT*dC*dT*dT*dC*dA*dT*dG*dG*dT*dA*dA*dG)",49.3%,
"ISIS 3676: AGCTCTTACCAAAGATCATGA, phosphorothioate, SEQ ID NO 89 (dA*dG*dC*dT*dC*dT*dT*dA*dC*dC*dA*dA*dA*dG*dA*dT*dC*dA*dT*dG*dA)",24.5%,
"ISIS 3679: AGTAGGCCTGGAAGGAAATTT, phosphorothioate, SEQ ID NO 90 (dA*dG*dT*dA*dG*dG*dC*dC*dT*dG*dG*dA*dA*dG*dG*dA*dA*dA*dT*dT*dT)",30.3%,
"ISIS 3688: TGGCCTCACCGATCCGTTGCA, phosphorothioate, SEQ ID NO 91 (dT*dG*dG*dC*dC*dT*dC*dA*dC*dC*dG*dA*dT*dC*dC*dG*dT*dT*dG*dC*dA)",43.1%,
"ISIS 3694: ACAGCAGCTGTGAGGAGACAC, phosphorothioate, SEQ ID NO 92 (dA*dC*dA*dG*dC*dA*dG*dC*dT*dG*dT*dG*dA*dG*dG*dA*dG*dA*dC*dA*dC)",28.2%,
"ISIS 3697: ACTCTTACCACAGGTGATTCT, phosphorothioate, SEQ ID NO 93 (dA*dC*dT*dC*dT*dT*dA*dC*dC*dA*dC*dA*dG*dG*dT*dG*dA*dT*dT*dC*dT)",39%,
"ISIS 3712: AGGAGTCCTGTTTTGAAATCA, phosphorothioate, SEQ ID NO 94 (dA*dG*dG*dA*dG*dT*dC*dC*dT*dG*dT*dT*dT*dT*dG*dA*dA*dA*dT*dC*dA)",31.8%,
"ISIS 4133: AGTGCACGTTGAGTATGTGAG, phosphorothioate, SEQ ID NO 95 (dA*dG*dT*dG*dC*dA*dC*dG*dT*dT*dG*dA*dG*dT*dA*dT*dG*dT*dG*dA*dG)",37.3%,
"ISIS 4149: CTACGGCAGAGACGAGATAGC, phosphorothioate, SEQ ID NO 96 (dC*dT*dA*dC*dG*dG*dC*dA*dG*dA*dG*dA*dC*dG*dA*dG*dA*dT*dA*dG*dC)",20.2%,
"ISIS 4946: GGG TGG GAA TAG, SEQ ID NO 107 (dG*dG*dG*dT*dG*dG*dG*dA*dA*dT*dA*dG; aptamer)",,% Inhibition (1 μM) [1]: 73.2%
"ISIS 4947: AGG TGG GTA TAG, SEQ ID NO 103 (dA*dG*dG*dT*dG*dG*dG*dT*dA*dT*dA*dG; aptamer)",,% Inhibition (1 μM) [1]: 22.7%
"ISIS 4955: GGG AGG GTA TAG, SEQ ID NO 104 (dG*dG*dG*dA*dG*dG*dG*dT*dA*dT*dA*dG; aptamer)",,% Inhibition (1 μM) [1]: 97.5%
